Experimental data from PMC5116089, “Sulfheme formation during homocysteine S-oxygenation by catalase in cancers and neurodegenerative diseases” (Nature Communications, 2016).
Values belong to the compound of their own block, whether it stands above or below them.

Biological target: T1, Bovine liver catalase (Bos taurus, UniProt P00432)
T1 construct: Bovine liver catalase was also purchased from Sigma-Aldrich; purchased Sigma-Aldrich; host or cells: bovine liver
T1 sequence (P00432 2-527 limits assumed): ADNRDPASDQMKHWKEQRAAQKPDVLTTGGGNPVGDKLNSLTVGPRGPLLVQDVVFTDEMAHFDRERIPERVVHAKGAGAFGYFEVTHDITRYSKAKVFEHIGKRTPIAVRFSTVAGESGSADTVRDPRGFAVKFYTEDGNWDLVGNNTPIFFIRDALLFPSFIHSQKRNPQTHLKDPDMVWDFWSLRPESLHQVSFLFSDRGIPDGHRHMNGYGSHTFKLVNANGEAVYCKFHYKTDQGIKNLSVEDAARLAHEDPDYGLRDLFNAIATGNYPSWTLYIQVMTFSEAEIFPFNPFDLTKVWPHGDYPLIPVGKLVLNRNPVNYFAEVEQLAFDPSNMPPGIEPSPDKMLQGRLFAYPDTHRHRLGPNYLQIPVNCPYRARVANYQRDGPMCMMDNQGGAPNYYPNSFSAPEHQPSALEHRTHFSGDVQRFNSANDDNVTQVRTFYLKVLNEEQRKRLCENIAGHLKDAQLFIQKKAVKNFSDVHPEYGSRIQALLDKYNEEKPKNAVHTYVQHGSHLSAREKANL
Experiment: Ultraviolet-visible spectral changes and HPLC-MS of extracted heme after reaction of CAT with thiols
Format: biochemical
Protocol: Ultraviolet–visible spectra were recorded on a Cary 300 Scan or an Uvikon 941 spectrophotometer equipped with a temperature equilibrating water bath (±1 °C). Spectral changes over time were recorded when CAT was incubated with L-HCys (0.2 or 2 mM), L-Cys (0.2, 2 or 9 mM) or GSH (1 or 30 mM) at 25 °C in a 1 ml quartz cuvette containing a solution of CAT (2.7–5.9 μM) in 50 mM KPi, pH 7.4±1 mM DTPA. Due to half-site reactivity of biological thiols with CAT, the data were recorded versus a blank containing half the concentrations of CAT used in the experiments, that is, a solution of 1.35–2.95 μM CAT in 50 mM KPi at pH 7.4±1 mM DTPA. Reactions were initiated by addition of the thiol-containing compounds. Comparative kinetic studies were performed by incubating CAT ([…] in the experiment, 1.35–1.5 μM in the blank) with 2 mM L-HCys in 50 mM KPi, pH 7.4, 1 mM DTPA with or without […], 5,5-dimethyl-1,3-cyclohexanedione (dimedone, 4 mM), BCN (0.1 mM) or SOD, 40 U). All the experiments were performed at least in duplicate.
HPLC–MS or –HRMS spectra of the prosthetic heme-iron group were recorded on a Thermo-Finnigan Surveyor or a Thermos Fisher Accela equipped with an XTerra MS C18 3.5 μm (2.1 × 50 mm) and a pre-guard column coupled to an ESI LCQ Advantage or an Exactive orbitrap spectrometer, respectively. The prosthetic heme group was extracted on ice by incubating a solution of CAT (5–8 μM) with 1.65 volume of 50 mM Gly-HCl pH 2.0 and 2.65 vol of butan-2-one kept a −20 °C. After vigorous mixing and a short centrifugation step (13,000 r.p.m., 4 °C, 30 s), the upper organic phase was quickly removed and mixed with a solution of 2 M imidazole (10% v/v) to stabilize the extracted cofactor and permit analysis. […] Control experiments (CAT, thiol-compounds and additives alone as well CAT and additives or thiol-compounds and additives) were performed in each instance and analysed in parallel.

Compound: N[C@@H](CS)C(=O)O [Cys, cysteine]
- heme-iron species formed from CAT (physiological concentration of Cys (200 μM) in the presence of iron, no DTPA): only leads to the reversible formation of compound II

- heme-iron species formed from CAT (GSH (30 mM)): compound II formation was only observed
Compound: N[C@@H](CCC(=O)N[C@@H](CS)C(=O)NCC(=O)O)C(=O)O [GSH, glutathione]

Compound: NC(CCS)C(=O)O (stereo not drawn) [HCys, homocysteine]
- heme-iron species formed from CAT (2 mM HCys, 1 mM DTPA, pH 7.4, 25 °C): induces the production of a sulfheme species
